From US8986722B2, “Pest control composition” (priority 2010, dated 2015) come the findings set out here.

Data set [1] in a line: HLB of polyglycerol fatty acid ester, Griffin formula 20(1−S/A). The settings on record: from saponification and acid values. Format: physicochemical. From the text:
The HLB (Hydrophile-Lipophile Balance) is an index indicating degrees of hydrophilic properties and lipophilic properties of a surfactant and being shown by a numerical value of 0 to 20. […] Therefore, a surfactant having a low HLB is apt to adapt to a hydrophobic system and a surfactant having a high HLB is apt to adapt to a hydrophilic system.
As the HLB value of said polyglycerol fatty acid ester, a numerical value derived from the following calculation method which is an empirical formula by Griffin is applied. In this regard, as the below-described saponification and acid values, values analyzed in accordance with general test procedures of standards for food additives and standards of quasi-drug ingredients are used. HLB value=20(1−S/A)
S: Saponification value for an ester of a surfactant.
A: Acid value of a fatty acid constituting a surfactant.

Data set [2] is described as follows: Surface tension by Wilhelmy method (plate method). Format: physicochemical. The settings on record: 20° C., 0.1% by mass aqueous solution. How it is done:
For surface tension in the present description, a numerical value measured by Wilhelmy method (plate method) is used. The principle of measurement is as described below. When a platinum plate is contacted with the surface of a liquid, the liquid rises along the plate. Then, surface tension acts along the periphery of the plate and a force drawing the plate into the liquid is generated. Thus in the method, this drawing force is measured and the surface tension is measured. Specifically, a 0.1% by mass aqueous solution of a sample nonionic surfactant is made as a measurement sample, which is measured by an automatic surface tension measuring machine (for example, DY-300 automatic surface tension meter, manufactured by Kyowa Interface Science Corp., Ltd.) by Wilhelmy method shown above at a temperature of 20° C. to determine the surface tension. […] The nonionic surfactant has a property to decrease the surface tension of an aqueous solution. For this reason, when an aqueous solution containing this adheres to the surface of another substance, “wettability” at said surface is improved. As a result, a diluent of the present invention composition containing said nonionic surfactant easily adheres to the surface of target pests and the surface of spray-target agricultural crops.

For decaglycerol octaoleic acid ester, the HLB entry in data set [1] is given as “about 5”.
As to “hexaglycerol monooleate [SY Glyster MO-5S]”, the values for the HLB in data set [1] and in data set [1] (listed as hexaglycerol monooleic acid ester) were 11.6 and “about 11”, respectively.
For the compound hexaglycerol hexaoleic acid ester, in data set [1], the HLB result is “about 4”.
Same read-out and setting: as for “decaglycerol erucate [SY Glyster NE-750]”, the figure is 3.2.
As for “decaglycerol monocaprate [SY Glyster MCA-750]”, the HLB was 16 in data set [1] and “about 16” in data set [1] (listed as decaglycerol monocapric acid ester).
“tetraglycerol monolaurate [SY Glyster ML-310]”: the HLB in data set [1] is recorded as 10.3; in data set [1] (listed as tetraglycerol monolauric acid ester), “about 10”.
Regarding diglycerol monooleate [S-FACE O-201P], the HLB in data set [1] was 8; in data set [1] (listed as diglycerol monooleic acid ester) it was “about 8”.
In the case of decaglycerol nonaoleic acid ester, the HLB entry in data set [1] was “about 4”.
Regarding “polyglycerol condensed ricinoleate [SY Glyster CRS-75]”, in data set [1], the HLB is 3.
Consider diglycerol dioleic acid ester, for which the HLB entry in data set [1] was “about 4”.
The same measure, in the same setting: as for tetraglycerol hexaoleic acid ester, the entry is “about 2”.
With `CCCCCCCCOC(=O)CC(C(=O)OCCCCCCCC)S(=O)(=O)O` (stereo not drawn) [Newkalgen EP-70G, dioctyl sulfosuccinate], in data set [2], the surface tension was found to be 28 mN/m.
As for decaglycerol dodecaoleic acid ester, the HLB result in data set [1] is given as “about 3”.
On the same count and under the same terms, the entry for diglycerol trioleic acid ester is “about 3”.
As for “decaglycerol decaoleate [SY Glyster DAO-7S]”, the HLB is 3.2 in data set [1] and “about 4” in data set [1] (listed as decaglycerol decaoleic acid ester).
For the compound decaglycerol undecaoleic acid ester, the HLB entry in data set [1] is “about 3”.
For the compound “hexaglycerol condensed ricinoleate [SY Glyster CR-500]”, the HLB in data set [1] is given as 3; in data set [1] (listed as hexaglycerol-condensed ricinoleic acid ester), “about 3”.
As to tetraglycerol tetraoleic acid ester, in data set [1], the HLB entry is on record as “about 4”.
As to “hexaglycerol pentaoleate [SY Glyster PO-5S]”, the HLB is 4.9 in data set [1] and “about 5” in data set [1] (listed as hexaglycerol pentaoleic acid ester).
hexaglycerol octaoleic acid ester: the HLB result in data set [1] is “about 4”.
For the compound tetraglycerol pentaoleic acid ester, the HLB result in data set [1] was “about 2”.
“decaglycerol erucate [SY Glyster OE-750]”: the HLB in data set [1] is on record as 3.7.
On the same count and under the same terms, the entry for decaglycerol heptaoleic acid ester is “about 5”; for diglycerol tetraoleic acid ester it is “about 2”; for tetraglycerol trioleic acid ester it is “about 5”.
Consider hexaglycerol heptaoleic acid ester, for which the HLB result in data set [1] is “about 4”.
